Assay results published in PubChem BioAssay (NCI).
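Tested at 5 concentrations; 48 h exposure; 96-well plates; endpoints linearly interpolated, else capped at highest concentration. TGI marks complete inhibition of growth.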

Legend:
Assay in all cases: DTP human tumour cell line panel, 48 h
786-0 renal = test system: 786-0 renal
A498 renal = test system: A498 renal
A549 NSCLC = test system: A549 NSCLC
ACHN renal = test system: ACHN renal
BT-549 breast = test system: BT-549 breast
CAKI-1 renal = test system: CAKI-1 renal
CCRF-CEM leukemia = test system: CCRF-CEM leukemia
COLO 205 colon = test system: COLO 205 colon
DU-145 prostate = test system: DU-145 prostate
EKVX NSCLC = test system: EKVX NSCLC
HCT-116 colon = test system: HCT-116 colon
HCT-15 colon = test system: HCT-15 colon
HL-60(TB) leukemia = test system: HL-60(TB) leukemia
HOP-62 NSCLC = test system: HOP-62 NSCLC
HOP-92 NSCLC = test system: HOP-92 NSCLC
HS 578T breast = test system: HS 578T breast
HT29 colon = test system: HT29 colon
IGROV1 ovarian = test system: IGROV1 ovarian
K-562 leukemia = test system: K-562 leukemia
KM12 colon = test system: KM12 colon
LOX IMVI melanoma = test system: LOX IMVI melanoma
M14 melanoma = test system: M14 melanoma
MALME-3M melanoma = test system: MALME-3M melanoma
MCF7 breast = test system: MCF7 breast
MDA-MB-231 breast = test system: MDA-MB-231 breast
MDA-MB-435 = test system: MDA-MB-435
MDA-N = test system: MDA-N
MOLT-4 leukemia = test system: MOLT-4 leukemia
NCI-H226 lung = test system: NCI-H226 lung
NCI-H23 lung = test system: NCI-H23 lung
NCI-H460 lung = test system: NCI-H460 lung
NCI-H522 lung = test system: NCI-H522 lung
NCI/ADR-RES ovarian = test system: NCI/ADR-RES ovarian
OVCAR-3 ovarian = test system: OVCAR-3 ovarian
OVCAR-4 ovarian = test system: OVCAR-4 ovarian
OVCAR-5 ovarian = test system: OVCAR-5 ovarian
OVCAR-8 ovarian = test system: OVCAR-8 ovarian
PC-3 prostate = test system: PC-3 prostate
RPMI-8226 leukemia = test system: RPMI-8226 leukemia
RXF 393 renal = test system: RXF 393 renal
SF-268 CNS = test system: SF-268 CNS
SF-295 CNS = test system: SF-295 CNS
SF-539 CNS = test system: SF-539 CNS
SK-MEL-2 melanoma = test system: SK-MEL-2 melanoma
SK-MEL-28 melanoma = test system: SK-MEL-28 melanoma
SK-MEL-5 melanoma = test system: SK-MEL-5 melanoma
SK-OV-3 ovarian = test system: SK-OV-3 ovarian
SN12C renal = test system: SN12C renal
SNB-19 CNS = test system: SNB-19 CNS
SNB-75 CNS = test system: SNB-75 CNS
SR leukemia = test system: SR leukemia
SW-620 colon = test system: SW-620 colon
T-47D breast = test system: T-47D breast
TK-10 renal = test system: TK-10 renal
U251 CNS = test system: U251 CNS
UACC-257 melanoma = test system: UACC-257 melanoma
UACC-62 melanoma = test system: UACC-62 melanoma
UO-31 renal = test system: UO-31 renal

For `Cc1cc(OCc2nc(N)nc(N)c2-c2ccc(Cl)c(Cl)c2)ccc1[N+](=O)[O-]`, the TGI (786-0 renal) was 22.3 µM, the TGI (A498 renal) was 1.3 µM and the TGI (A549 NSCLC) was over 100 µM. For the same compound, the TGI (ACHN renal) was 2.37 µM, the TGI (BT-549 breast) was 12.2 µM and the TGI (CAKI-1 renal) was 31.8 µM. It also gave a TGI (CCRF-CEM leukemia) of 2.27 µM, a TGI (COLO 205 colon) of 18.9 µM and a TGI (DU-145 prostate) of over 65 µM. For the same compound, the TGI (EKVX NSCLC) was 45 µM, the TGI (HCT-116 colon) was 16 µM and the TGI (HCT-15 colon) was 27.4 µM. It also gave a TGI (HL-60(TB) leukemia) of 3.56 µM, a TGI (HOP-62 NSCLC) of 12 µM and a TGI (HOP-92 NSCLC) of over 60 µM. For the same compound, the TGI (HS 578T breast) was over 88.2 µM, the TGI (HT29 colon) was 18.1 µM and the TGI (IGROV1 ovarian) was over 41.1 µM. For the same compound, the TGI (K-562 leukemia) was over 100 µM, the TGI (KM12 colon) was 33.8 µM and the TGI (LOX IMVI melanoma) was 37.8 µM. For the same compound, the TGI (M14 melanoma) was 10.7 µM, the TGI (MALME-3M melanoma) was 29.5 µM and the TGI (MCF7 breast) was 8.15 µM. The TGI (MDA-MB-231 breast) was 7.24 µM, the TGI (MDA-MB-435) was 21.5 µM and the TGI (MDA-N) was 22.9 µM. It also gave a TGI (MOLT-4 leukemia) of over 27.5 µM, a TGI (NCI-H226 lung) of 28.6 µM and a TGI (NCI-H23 lung) of 4.79 µM. For the same compound, the TGI (NCI-H460 lung) was 4.88 µM, the TGI (NCI-H522 lung) was 10.6 µM and the TGI (NCI/ADR-RES ovarian) was 18.6 µM. For the same compound, the TGI (OVCAR-3 ovarian) was 3.29 µM, the TGI (OVCAR-4 ovarian) was 39.1 µM and the TGI (OVCAR-5 ovarian) was 47 µM. It also gave a TGI (OVCAR-8 ovarian) of 34 µM, a TGI (PC-3 prostate) of 11.7 µM and a TGI (RPMI-8226 leukemia) of over 78.7 µM. It also gave a TGI (RXF 393 renal) of 21.6 µM, a TGI (SF-268 CNS) of 36.5 µM and a TGI (SF-295 CNS) of 4.72 µM. It also gave a TGI (SF-539 CNS) of 22.5 µM, a TGI (SK-MEL-2 melanoma) of 15.1 µM and a TGI (SK-MEL-28 melanoma) of 40.8 µM. It also gave a TGI (SK-MEL-5 melanoma) of 15 µM, a TGI (SK-OV-3 ovarian) of over 63.3 µM and a TGI (SN12C renal) of 25.9 µM. It also gave a TGI (SNB-19 CNS) of over 55.1 µM, a TGI (SNB-75 CNS) of 13.7 µM and a TGI (SR leukemia) of 0.106 µM. For the same compound, the TGI (SW-620 colon) was over 63.6 µM, the TGI (T-47D breast) was over 51.5 µM and the TGI (TK-10 renal) was 13.4 µM. For the same compound, the TGI (U251 CNS) was 12.3 µM, the TGI (UACC-257 melanoma) was 3.28 µM and the TGI (UACC-62 melanoma) was 1.88 µM. For the same compound, the TGI (UO-31 renal) was 30.5 µM.
